Laboratory results from patent publication US20080058284A1, “Pharmaceutical compositions of semicarbazones and/or thiosemicarbazones and/or their derivatives and products of these compositions and their uses as anticonvulsant, anti-nociceptive and anti-inflammatory agents, and in the angiogenic therapy” (UNIVERSIDALE FEDERAL DE MINAS GERAIS, priority 2002, published 2008).

Key:
motor activity of mice = assay: Motor activity in rota-rod apparatus; assay type: in vivo; settings: 10, 25 or 50 mg/kg i.p.; 30 min after injection; 14 rpm, cut-off 1 min
Experimental: The effect of BS on the motor activity of mice was evaluated in order to investigate if inhibition of the nociceptive behavior in animals treated with BS would not be the result of a central depressor effect. The motor activity was evaluated in a rota-rod apparatus. During the experiment, the mice were placed on the rota-rod (14 rpm) and the time they spent in the apparatus was determined. The cut-off time was 1 min. After the basal lecture, the animals were treated with BS (10, 25 or 50 mg/kg, intraperitoneal; i.p.). The vehicle used was 25% dimethylsulphoxide (DMSO)+10% tween 80 in saline. Thirty minutes after the injection, the time spent in the rota-rod was determined again.

[1] = system: angiogenesis induced by sponge implant in Swiss mice; assay: Angiogenesis induced by sponge implant, hemoglobin content (vascular index); assay type: in vivo; settings: for reduction in the hemoglobin content of implants: vs vehicle-treated group
Experimental: The experiments were performed in male, Swiss mice (20-30 g; 12 weeks old) from the Animal House of the Institute of Biological Sciences, Federal University of Minas Gerais. Polyether-polyurethane sponge discs 5 mm thickness and 10 mm diameter with central cannula, used as a framework to induce fibrovascular tissue growth, were introduced through a skin incision in the back of mice anesthetized with 2,2,2-tribromoethanol ([…]) [Machado, R. D. P., Santos, R. A. S., Andrade, S. P., Life Sciences 66, 67, 2000]. The animals were housed individually and provided with normal food and water. Housing and anesthesia concurred with the guidelines established by our local Institutional Animal Welfare Committee.
Four more doses were given in the subsequent days. The animals were killed by cervical dislocation 9 days after implantation. The implants were removed and processed for hemoglobin determination (vascular index) using a modified Drabkin's method [Plunkett, M. L., Haley, J. A., Lab. Invest. […] One group of animals received injection of vehicle.

[2] = system: nociceptive response induced by formaldehyde in mice; assay: Licking behavior induced by formaldehyde; assay type: in vivo
Experimental: In the first model, licking behaviour induced by formaldehyde (0.92%, 20 μL), the inflammatory stimulus is injected into the dorsum of the right hindpaw of mice. Immediately after the injection, the animals present a nociceptive behaviour characterized by licking and biting the injected paw. The licking time is determined between 0 and 5 min and 15 and 30 min after formaldehyde injection. The first phase results from direct activations of primary afferent fibers and is inhibited mainly by centrally acting drugs such as the opioid analgesics. The second phase is associated with the development of an inflammatory response and facilitation of synaptic transmission in the spinal cord.
In the model of licking behavior induced by formaldehyde, the inflammatory stimulus (0.92%, 20 μL) is injected into the dorsum of the right hindpaw of mice. Immediately after the injection, the animals present a nociceptive behaviour characterized by licking and biting the injected paw. The licking time is determined between 0 and 5 min (first phase) and 15 and 30 min (second phase) after formaldehyde injection. The first phase of the nociceptive response induced by formaldehyde in mice was inhibited by the highest dose of BS (50 mg/kg, i.p.).

[3] = system: Wistar Audiogenic Rats (WAR) with audiogenic seizures; assay: Audiogenic seizures (AS) in Wistar Audiogenic Rats, blockade of tonic component; assay type: in vivo, rat
Text: Comparison of the Anticonvulsant Effect of Free Benzaldehyde Semicarbazone (BS) and the HP-β-CD/BS Pharmaceutical Composition in Wistar Audiogenic Rats (WAR) with Audiogenic Seizures (AS). Typically WARs Present Running Fits, Jumping, Atonic Falling Followed by Tonic-Clonic Seizures and Clonic Spasms when Submitted to High Intensity Sound Stimulus (120 dB SPL)
(§1) Female Wistar Audiogenic Rats (WARs) from our own inbred colony, maintained at the animal facilities of the Physiology Department of Federal University of Minas Gerais, Brazil, weighing 250-300 g, were used. They were kept at 24° C., in groups of 5 per cage receiving chow pellets and water ad libitum. The light/dark cycle was 12 h:12 h, with lights on at 7:00 am and lights off at 7:00 pm. Efforts were made in order to avoid any unnecessary distress to the animals, in accordance to the Guidelines for Animal Experimentation of Federal University of Minas Gerais, Brazil.
Audiogenic seizures (AS) were induced by a sound stimulus (120 dB) delivered into an acoustic chamber through a loud speaker, until tonic seizures appeared, or during a maximum of 1 minute. Behavior was evaluated by a severity index (SI) ranging from SI=0.0 to SI=1.0 (maximum).
Typically WARs present running fits, jumping and atonic falling followed by tonic-clonic seizures and clonic spasms (SI≧0.85). Animals were stimulated three times, once every three days before the beginning of experiments, in order to screen them for seizure severity (control recording). Seven days after the third stimulation they were used in the experiments. To evaluate the effect of decreasing on AS severity, it was taken as criteria the blockade of the tonic component of seizure, which means to obtain SI<0.61.

[4] = system: Wistar normal rats with electroshock induced seizures; assay: Maximum electroshock screening (MES), blockade of hindlimb extension; assay type: in vivo, rat
Experimental: Comparison of the Anticonvulsant Effect of Free Benzaldehyde Semicarbazone (BS) and the BS/HP-β-CD and BS/β-CD Pharmaceutical Compositions in Wistar Normal Rats with Electroshock Induced Seizures (Maximum Electroshock Screening, MES)
as §1, with “Wistar” for “Female Wistar”, “rats” for “Audiogenic Rats (WARs)”, “the main breeding stock of the Institute of Biological Sciences, Federal University of Minas Gerais, Brazil,” for “our own inbred colony,”, “Department,” for “Department of Federal University of Minas Gerais, Brazil,”
Electroshock seizures were induced by electric stimulus, produced by an ELEKTROSCHOCKGERAT apparatus (Karl Kolbe, Scientific Technical Supplies, Frankfurt, Germany) using a current of 70 mA, 60 Hz, during 1 second through a pair of ear clip electrodes.
The behavioral evaluation was carried out by analyzing the tonic component in a four points scale as follows: 0=no seizure; 1=forelimb extension without hind limb extension; 2=complete forelimb extension and partial hind limb extension; 3=complete hind limb extension, which stays parallel to the tail. To evaluate the effect of decreasing on electroshock induced seizures severity, it was taken as criteria the blockade of complete fore- and hind limb extension (score≦1).

[5] = system: carrageenan-induced edema in rats; assay: Carrageenan-induced edema; assay type: in vivo, rat; settings: 10, 25 or 50 mg/kg i.p., -1 h
Experimental: To evaluate if a coupound presents antiedematogenic activity, the model of carrageenan-induced edema in rats was used. In this model, before the administration of any drug, the right hindpaw volume is determined with a plethysmomether. After the division of the groups, carrageenan (1%, 50 μL) is injected into the plantar surface. At different times after the injection of carrageenan, the paw volume is determined again. This inflammatory stimulus induces a marked edema that is inhibited by different anti-inflammatory drugs (steroid and non-steroid), inhibitors of nitric oxide synthesis and antagonists of histamine, 5-hydroxytryptamine and bradykinin, inhibitors of nitric oxide syntheses, etc.
To evaluate if BS presents antiedematogenic activity, the model of carrageenan-induced edema in rats was used. In this model, before the administration of any drug, the right hindpaw volume is determined with a plethysmomether. After the division of the groups, carrageenan (1%, 50 μl) is injected into the plantar surface. At different times after the injection of carrageenan, the paw volume is determined again.

[6] = system: thermal allodynia induced by carrageenan in Wistar male rats; assay: Thermal allodynia induced by carrageenan; assay type: in vivo, rat; settings: only at 50 mg/kg i.p., -1 h (10, 25, 50 mg/kg tested)
Experimental: (§2) In the model of thermal allodynia, the right hindpaw withdrawal latency to a thermal stimulus (Hargreaves apparatus—Ugo Basile, Italy) is determined in rats before the administration of any drug. The intensity of the thermal stimulus is adjusted to induce a basal latency about 12 s. After the basal lecture, carrageenan (1%, 50 μL) is injected into the right hindpaw. This inflammatory stimulus reduces the latency for paw withdrawal induced by the thermal stimulus, which is characterized as thermal allodynia.
as §2, with “μl)” for “μL)”

[7] = system: nociceptive response of mice on hot-plate (57° C.); assay: Hot-plate model; assay type: in vivo; settings: 10, 25 or 50 mg/kg i.p., -1 h
Experimental: (§3) In the hot-plate model, the mice are placed over a hot-plate (57° C.). The latency to jump or lick the paws is determined. In this model, direct and immediate activation of peripheral afferent fibbers occurs. Thus, drugs that act mainly in the central nervous system inhibit the nociceptive response in this model.
as §3, with “fibers” for “fibbers”

Row | Molecule | time spent in the rota-rod (motor activity of mice) | reduction in the hemoglobin content of implants ([1]; 0.05 mg/kg ip, 9 days after implantation) | reduction in the hemoglobin content of implants ([1]; the other doses (0.25, 0.5 and 2.5 mg/kg ip)) | second phase of the nociceptive response (licking time 15-30 min) ([2]; all doses: 10, 25 and 50 mg/kg i.p., -1 h) | first phase of the nociceptive response (licking time 0-5 min) ([2]; highest dose, 50 mg/kg i.p.) | animals with tonic component of seizures blocked ([3]; 50 mg/Kg ip) | animals with tonic component of seizures blocked ([3]; 75 mg/Kg ip) | animals with tonic component of seizures blocked ([3]; 100 mg/Kg ip) | minimum dose necessary to produce anticonvulsant activity ([3]; vo and ip) | animals with hindlimb extension blocked ([4]; 100 mg/Kg ip and vo, males) | animals in which active, 240 minutes after administration ([4]; 240 minutes after administration (vo)) | minimum dose necessary to produce anticonvulsant activity ([4]; ip) | minimum dose necessary to produce anticonvulsant activity ([4]; vo) | carrageenan-induced edema (paw volume) [5] | nociceptive response in thermal allodynia (paw withdrawal latency) [6] | anti-nociceptive effect (latency to jump or lick the paws) [7] | increase in hemoglobin content of implants ([1]; 0.25 mg/kg, relative to the control group) | increase of hemoglobin content (vascular index), summary statement ([1]; dose not stated)
1 | NC(=O)NN=Cc1ccccc1 [BS, benzaldehyde semicarbazone] | did not reduce the time spent in the rota-rod | unable to reduce the hemoglobin content | more than 50% | markedly inhibited | inhibited | 33% | 50% | 83% | 100 mg/kg | about 90% | no activity | 100 mg/kg | 100 mg/kg | inhibited the carrageenan-induced edema | statistically inhibited | did not exhibit anti-nociceptive effect | – | –
2 | bromobenzaldehyde semicarbazone [BrBs] | – | – | – | – | – | – | – | – | – | – | – | – | – | – | – | – | about 30% | more than 30%
